The data set can be described thus: crystalline stability in constant temperature and humidity chamber. Format: physicochemical.
Where [1] appears, read: 25° C./75% RH, summary of 1 to 7 days.
Where [2] appears, read: 80° C./75% RH, summary of 1 to 7 days.
Where [3] appears, read: powder exposed to 25° C., 75%RH, 1 day.
[4] abbreviates: powder exposed to 25° C., 75%RH, 3 days.
[5] abbreviates: powder exposed to 25° C., 75%RH, 7 days.
Setting [6] is: powder exposed to 80° C., 75%RH, 1 day.
[7] abbreviates: powder exposed to 80° C., 75%RH, 3 days.
The mark [8] stands for this setting: powder exposed to 80° C., 75%RH, 7 days.

The values that follow come from patent US10336763B1, “Crystal form B of ribociclib succinate” (Chunghwa Chemical Synthesis & Biotech Co. Ltd., priority 2018, dated 2019).

As to `CN(C)C(=O)c1cc2cnc(Nc3ccc(N4CCNCC4)cn3)nc2n1C1CCCC1.O=C(O)CCC(=O)O` [Ribociclib succinate in crystalline form A] [butanedioicacid-7-cyclopentyl-N,N-dimethyl-2-[(5-piperazin-1-ylpyridin-2-yl)amino]pyrrolo[2,3-D]pyrimidine-6-carboxamide], the “crystalline form (crystalline stability)” value is, setting by setting: under setting [1], “maintained its crystalline form”; under setting [2], “transformed from crystalline form A to crystalline form B”; under setting [3], “Stayed as A”; under setting [4], “Stayed as A”; under setting [5], “Stayed as A”; under setting [6], “Transformed from A to B”. Also, the “crystalline form (crystalline stability)” value reads like this: under setting [7], “Transformed from A to B”; under setting [8], “Transformed from A to B”.

`CN(C)C(=O)c1cc2cnc(Nc3ccc(N4CCNCC4)cn3)nc2n1C1CCCC1.O=C(O)CCC(=O)O` [Ribociclib succinate in crystalline form B] [butanedioicacid-7-cyclopentyl-N,N-dimethyl-2-[(5-piperazin-1-ylpyridin-2-yl)amino]pyrrolo[2,3-D]pyrimidine-6-carboxamide]: the “crystalline form (crystalline stability)” value is “maintained its crystalline form and did not transform to other crystalline forms” under setting [1]; “maintained its crystalline form and did not transform to other crystalline forms” under setting [2]; “Stayed as B” under setting [3]; “Stayed as B” under setting [4]; “Stayed as B” under setting [5]; “Stayed as B” under setting [6]. Besides, the “crystalline form (crystalline stability)” value under setting [7] is given as “Stayed as B” and the “crystalline form (crystalline stability)” value under setting [8] is recorded as “Stayed as B”.
